Experimental data from patent US9725414B2, “Fungicidal N-bicycloalkyl and N-tricycloalkyl pyrazole-4-(thio)carboxamide derivatives” (priority 2011, dated 2017).

Key:
[1] = log P by HPLC on reversed-phase column (C 18), EEC Directive 79831 Annex V.A8; format: physicochemical; details: HPLC reversed-phase C 18, 40° C., 0.1% aqueous formic acid and acetonitrile gradient; several values = mixture of two or more isomers
How it was run: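 Reversed-phase C18 HPLC at 40° C, 0.1% aqueous formic acid/acetonitrile linear gradient 10% to 90% acetonitrile, per EEC Directive 79831 Annex V.A8. log P obtained from retention time by linear interpolation between unbranched alkan-2-ones (C3-C16) of known log P.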

Pyrenophora teres = experiment: Example F: in vivo preventive test on Pyrenophora teres (barley), acetone/tween/DMSO preparation; details: 500 ppm of active ingredient, barley, grading 14 days after contamination
How it was run: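 Barley ("Plaisant") grown at 22° C was sprayed at the 1-leaf stage (10 cm) with active ingredient in acetone/tween/DMSO/water, with solvent-only controls. After 24 h, leaves were inoculated with Pyrenophora teres spores (12 000 spores per mL) from 12-day cultures. % efficacy versus controls graded 14 days post-contamination.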

Septoria tritici = experiment: Example H: in vivo preventive test on Septoria tritici (wheat), N,N-dimethylacetamide/emulsifier preparation; details: 500 ppm of active ingredient, evaluated 21 days after inoculation
Description: (§1) In Vivo Preventive Test on Septoria tritici (Wheat) Solvent: 49 parts by weight of N,N-dimethylacetamide Emulsifier: 1 part by weight of alkylaryl polyglycol ether To produce a suitable preparation of active compound, 1 part by weight of active compound or active compound combination is mixed with the stated amounts of solvent and emulsifier, and the concentrate is diluted with water to the desired concentration. To test for preventive activity, young plants are sprayed with the preparation of active compound or active compound combination at the stated rate of application. After the spray coating has been dried, the plants are sprayed with a spore suspension of Septoria tritici. The plants remain for 48 hours in an incubation cabinet at approximately 20° C. and a relative atmospheric humidity of approximately 100% and afterwards for 60 hours at approximately 15° C. in a translucent incubation cabinet at a relative atmospheric humidity of approximately 100%.

[2] = test system: Blumeria graminis f.sp. hordei; experiment: Example J: in vivo preventive test on Blumeria graminis (barley); details: 500 ppm of active ingredient, evaluated 7 days after inoculation
Description: In Vivo Preventive Test on Blumeria graminis (Barley) Solvent: 49 parts by weight of N,N-dimethylacetamide Emulsifier: 1 part by weight of alkylaryl polyglycol ether To produce a suitable preparation of active compound, 1 part by weight of active compound or active compound combination is mixed with the stated amounts of solvent and emulsifier, and the concentrate is diluted with water to the desired concentration. To test for preventive activity, young plants are sprayed with the preparation of active compound or active compound combination at the stated rate of application. After the spray coating has been dried, the plants are dusted with spores of Blumeria graminis f.sp. hordei.

Leptosphaeria nodorum = experiment: Example K: in vivo preventive test on Leptosphaeria nodorum (wheat); details: 500 ppm of active ingredient, evaluated 8 days after inoculation
Description: as §1, with “Leptosphaeria nodorum” for “Septoria tritici”, “Leptosphaeria nodorum.” for “Septoria tritici.”, “approximately” for “approximately 100% and afterwards for 60 hours at approximately 15° C. in a translucent incubation cabinet at a relative atmospheric humidity of approximately”

Puccinia triticina = experiment: Example L: in vivo preventive test on Puccinia triticina (wheat); details: 500 ppm of active ingredient, evaluated 8 days after inoculation
Description: In Vivo Preventive Test on Puccinia triticina (Wheat)
Solvent: 49 parts by weight of N,N-dimethylacetamide
Emulsifier: 1 part by weight of alkylaryl polyglycol ether
To produce a suitable preparation of active compound, 1 part by weight of active compound or active compound combination is mixed with the stated amounts of solvent and emulsifier, and the concentrate is diluted with water to the desired concentration.
To test for preventive activity, young plants are sprayed with the preparation of active compound or active compound combination at the stated rate of application.
After the spray coating has been dried, the plants are sprayed with a spore suspension of Puccinia triticina.
The plants remain for 48 hours in an incubation cabinet at approximately 20° C. and a relative atmospheric humidity of approximately 100%.
The plants are placed in the greenhouse at a temperature of approximately 20° C. and a relative atmospheric humidity of approximately 80%.
The test is evaluated 8 days after the inoculation. 0% means an efficacy which corresponds to that of the untreated control, while an efficacy of 100% means that no disease is observed.

[3] = test system: Fusarium nivale (var. majus); experiment: Example N: in vivo preventive test on Fusarium nivale (wheat); details: 500 ppm of active ingredient, evaluated 5 days after inoculation
Description: In Vivo Preventive Test on Fusarium nivale (Wheat) Solvent: 49 parts by weight of N,N-dimethylacetamide Emulsifier: 1 part by weight of alkylaryl polyglycol ether To produce a suitable preparation of active compound, 1 part by weight of active compound or active compound combination is mixed with the stated amounts of solvent and emulsifier, and the concentrate is diluted with water to the desired concentration. To test for preventive activity, young plants are sprayed with the preparation of active compound or active compound combination at the stated rate of application. After the spray coating has been dried, the plants are slightly injured by using a sandblast and afterwards they are sprayed with a conidia suspension of Fusarium nivale (var. majus). The plants are placed in the greenhouse under a translucent incubation cabinet at a temperature of approximately 10° C. and a relative atmospheric humidity of approximately 100%.

Venturia inaequalis = experiment: Example G: in vivo preventive test on Venturia inaequalis (apple scab); details: 100 ppm of active ingredient, evaluated 10 days after inoculation
Description: In Vivo Preventive Test on Venturia inaequalis (Apple Scab) Solvent: 24.5 parts by weight of acetone • 24.5 parts by weight of N,N-dimethylacetamide Emulsifier: 1 part by weight of alkylaryl polyglycol ether To produce a suitable preparation of active compound, 1 part by weight of active compound is mixed with the stated amounts of solvent and emulsifier, and the concentrate is diluted with water to the desired concentration. To test for preventive activity, young plants are sprayed with the preparation of active compound at the stated rate of application. After the spray coating has dried on, the plants are inoculated with an aqueous conidia suspension of the causal agent of apple scab (Venturia inaequalis) and then remain for 1 day in an incubation cabinet at approximately 20° C. and a relative atmospheric humidity of 100%. The plants are then placed in a greenhouse at approximately 21° C. and a relative atmospheric humidity of approximately 90%.

SMILES	logP [1]	Efficacy (Pyrenophora teres)	Efficacy (Septoria tritici)	Efficacy [2]	Efficacy (Leptosphaeria nodorum)	Efficacy (Puccinia triticina)	Efficacy [3]	Efficacy (Venturia inaequalis)
Cn1nc(C(F)F)c(C(=O)N(C2CC2)C2CC3CCCCC3C2)c1F (stereo not shown) [Example 12]	4.11	100%	100%	100%	93%	100%	100%	–
Cn1nc(C(F)F)c(C(=O)N(CC2(Cc3ccccc3)CC3CCC2C3)C2CC2)c1F (stereo not shown) [Example 69]	4.91	97%	100%	100%	100%	–	93%	–
CC(C1CC2CCC1C2)N(C(=O)c1c(C(F)F)nn(C)c1F)C1CC1 (stereo not shown) [Example 93]	4.01	–	83%	100%	100%	100%	100%	100%
Cn1nc(C(F)F)c(C(=O)N(CC2CC3CCC2C3)C2CC2)c1F (stereo not shown) [Example 71]	3.58	–	100%	100%	100%	100%	100%	100%
Cn1nc(C(F)F)c(C(=O)N(CC2CCC3CCCC3C2)C2CC2)c1F (stereo not shown) [Example 62]	4.41	97%	100%	100%	100%	100%	100%	–

More lines, main results first:

logP [1]	SMILES	Efficacy (Pyrenophora teres)	Efficacy (Septoria tritici)	Efficacy [2]	Efficacy (Leptosphaeria nodorum)	Efficacy (Puccinia triticina)	Efficacy [3]	Efficacy (Venturia inaequalis)
3.48	Cn1cc(C(=O)N(C2CC2)C2CCCC3CCCC32)c(C(F)F)n1 (stereo not shown) [Example 20]	97%	100%	95%	86%	78%	100%	–
3.99	Cn1nc(C(F)F)c(C(=O)N(C2CC2)C2CCCC3CCCC32)c1F (stereo not shown) [Example 19]	100%	100%	100%	100%	100%	100%	100%
